As usually defined, the inhibition is the drop in the measured response relative to a control, in per cent.

Data on 14 compounds can be found in ChEMBL document CHEMBL5442219.

Common to all, as to conditions: Compound concentration 10 µM
The target in assay [1] is D(3) dopamine receptor (Homo sapiens) (UniProt P35462).
Assay [2] concerns the target T1, Alpha-2C adrenergic receptor (Homo sapiens) (UniProt P18825).
T1 sequence (whole entry): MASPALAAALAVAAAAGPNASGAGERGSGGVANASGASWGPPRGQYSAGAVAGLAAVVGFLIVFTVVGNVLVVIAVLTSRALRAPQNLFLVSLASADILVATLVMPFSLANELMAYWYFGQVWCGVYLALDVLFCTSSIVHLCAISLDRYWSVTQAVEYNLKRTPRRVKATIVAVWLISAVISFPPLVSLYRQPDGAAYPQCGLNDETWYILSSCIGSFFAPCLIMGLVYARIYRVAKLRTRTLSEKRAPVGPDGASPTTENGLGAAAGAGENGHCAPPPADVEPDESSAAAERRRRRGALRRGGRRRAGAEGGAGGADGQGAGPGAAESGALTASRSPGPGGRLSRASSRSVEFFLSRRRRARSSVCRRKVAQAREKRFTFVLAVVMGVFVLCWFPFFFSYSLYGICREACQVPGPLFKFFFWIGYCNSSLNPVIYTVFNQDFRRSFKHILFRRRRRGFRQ

Assay [3] addresses Sodium-dependent noradrenaline transporter (Homo sapiens) (UniProt P23975).
Assay [4] addresses 5-hydroxytryptamine receptor 1E (Homo sapiens) (UniProt P28566).
In assay [5] the target is T2, 5-hydroxytryptamine receptor 3A (Homo sapiens) (UniProt P46098).
T2 sequence (whole entry): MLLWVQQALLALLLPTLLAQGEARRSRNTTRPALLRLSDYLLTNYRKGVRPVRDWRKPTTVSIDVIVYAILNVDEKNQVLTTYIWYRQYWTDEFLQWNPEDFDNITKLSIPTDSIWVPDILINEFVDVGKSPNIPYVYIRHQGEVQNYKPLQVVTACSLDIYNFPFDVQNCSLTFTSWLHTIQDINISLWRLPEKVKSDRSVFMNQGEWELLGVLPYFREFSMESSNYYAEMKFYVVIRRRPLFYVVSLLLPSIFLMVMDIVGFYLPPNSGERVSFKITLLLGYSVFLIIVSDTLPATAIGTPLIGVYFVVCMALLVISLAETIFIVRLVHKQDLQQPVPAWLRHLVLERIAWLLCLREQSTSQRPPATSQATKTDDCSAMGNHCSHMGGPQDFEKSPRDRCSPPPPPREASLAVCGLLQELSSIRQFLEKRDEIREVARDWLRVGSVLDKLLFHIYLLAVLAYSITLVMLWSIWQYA

Assay [6] deals with Histamine H3 receptor (Homo sapiens) (UniProt Q9Y5N1).
Assay [7] has as its target Histamine H4 receptor (Homo sapiens) (UniProt Q9H3N8).
The target of assay [8] is T3, D(4) dopamine receptor (Homo sapiens) (UniProt P21917).
T3 sequence (whole entry): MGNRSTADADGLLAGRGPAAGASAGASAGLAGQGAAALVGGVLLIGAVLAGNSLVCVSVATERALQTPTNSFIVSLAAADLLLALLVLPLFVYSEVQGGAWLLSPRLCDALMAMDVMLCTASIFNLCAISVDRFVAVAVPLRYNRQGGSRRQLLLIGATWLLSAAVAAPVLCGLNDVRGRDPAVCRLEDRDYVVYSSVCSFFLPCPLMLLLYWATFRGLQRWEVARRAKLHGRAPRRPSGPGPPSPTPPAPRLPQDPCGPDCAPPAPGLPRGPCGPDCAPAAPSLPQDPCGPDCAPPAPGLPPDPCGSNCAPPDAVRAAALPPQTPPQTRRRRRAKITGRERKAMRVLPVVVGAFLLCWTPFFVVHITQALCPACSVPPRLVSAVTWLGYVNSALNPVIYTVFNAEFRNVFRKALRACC

The target of assay [9] is 5-hydroxytryptamine receptor 6 (Homo sapiens) (UniProt P50406).
The target of assay [10] is Muscarinic acetylcholine receptor M3 (Homo sapiens) (UniProt P20309).
The target in assay [11] is T4, 5-hydroxytryptamine receptor 1A (Homo sapiens) (UniProt P08908).
T4 sequence (whole entry): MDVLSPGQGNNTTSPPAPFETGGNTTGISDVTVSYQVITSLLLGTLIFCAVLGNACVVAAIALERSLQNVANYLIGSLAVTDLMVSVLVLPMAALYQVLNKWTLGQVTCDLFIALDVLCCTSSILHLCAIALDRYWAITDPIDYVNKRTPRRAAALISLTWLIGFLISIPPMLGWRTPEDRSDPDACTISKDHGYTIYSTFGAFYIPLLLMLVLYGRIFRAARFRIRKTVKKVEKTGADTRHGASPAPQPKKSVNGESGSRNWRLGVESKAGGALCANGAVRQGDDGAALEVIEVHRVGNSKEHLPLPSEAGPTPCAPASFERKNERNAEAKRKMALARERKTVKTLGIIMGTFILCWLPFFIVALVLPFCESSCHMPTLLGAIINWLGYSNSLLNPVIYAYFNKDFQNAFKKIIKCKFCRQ

In assay [12] the target is T5, Alpha-2A adrenergic receptor (Homo sapiens) (UniProt P08913).
T5 sequence (whole entry): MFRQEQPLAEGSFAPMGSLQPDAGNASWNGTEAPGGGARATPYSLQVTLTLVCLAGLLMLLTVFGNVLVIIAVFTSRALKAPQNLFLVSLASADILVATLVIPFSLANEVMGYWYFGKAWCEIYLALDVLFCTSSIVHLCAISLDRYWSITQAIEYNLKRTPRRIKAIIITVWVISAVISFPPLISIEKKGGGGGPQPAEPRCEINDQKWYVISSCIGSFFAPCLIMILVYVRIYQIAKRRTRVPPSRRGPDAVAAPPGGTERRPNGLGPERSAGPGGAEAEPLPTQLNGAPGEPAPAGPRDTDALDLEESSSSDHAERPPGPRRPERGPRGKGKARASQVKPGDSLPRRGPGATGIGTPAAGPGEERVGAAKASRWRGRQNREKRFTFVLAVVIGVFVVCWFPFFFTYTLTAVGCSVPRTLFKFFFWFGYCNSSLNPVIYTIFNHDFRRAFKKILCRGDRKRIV

5-hydroxytryptamine receptor 6 (Homo sapiens), sequence (P50406 whole entry): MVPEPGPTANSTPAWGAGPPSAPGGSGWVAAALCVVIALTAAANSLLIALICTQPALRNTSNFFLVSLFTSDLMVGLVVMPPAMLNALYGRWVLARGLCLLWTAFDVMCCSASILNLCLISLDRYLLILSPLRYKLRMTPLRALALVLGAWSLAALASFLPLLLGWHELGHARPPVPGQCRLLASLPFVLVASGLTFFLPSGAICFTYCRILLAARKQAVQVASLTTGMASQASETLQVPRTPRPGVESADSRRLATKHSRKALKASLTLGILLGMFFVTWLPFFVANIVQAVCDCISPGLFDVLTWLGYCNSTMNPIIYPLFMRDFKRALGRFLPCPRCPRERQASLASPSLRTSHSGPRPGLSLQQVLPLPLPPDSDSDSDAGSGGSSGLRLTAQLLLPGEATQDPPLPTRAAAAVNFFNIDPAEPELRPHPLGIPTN
Sodium-dependent noradrenaline transporter (Homo sapiens), sequence (P23975 whole entry): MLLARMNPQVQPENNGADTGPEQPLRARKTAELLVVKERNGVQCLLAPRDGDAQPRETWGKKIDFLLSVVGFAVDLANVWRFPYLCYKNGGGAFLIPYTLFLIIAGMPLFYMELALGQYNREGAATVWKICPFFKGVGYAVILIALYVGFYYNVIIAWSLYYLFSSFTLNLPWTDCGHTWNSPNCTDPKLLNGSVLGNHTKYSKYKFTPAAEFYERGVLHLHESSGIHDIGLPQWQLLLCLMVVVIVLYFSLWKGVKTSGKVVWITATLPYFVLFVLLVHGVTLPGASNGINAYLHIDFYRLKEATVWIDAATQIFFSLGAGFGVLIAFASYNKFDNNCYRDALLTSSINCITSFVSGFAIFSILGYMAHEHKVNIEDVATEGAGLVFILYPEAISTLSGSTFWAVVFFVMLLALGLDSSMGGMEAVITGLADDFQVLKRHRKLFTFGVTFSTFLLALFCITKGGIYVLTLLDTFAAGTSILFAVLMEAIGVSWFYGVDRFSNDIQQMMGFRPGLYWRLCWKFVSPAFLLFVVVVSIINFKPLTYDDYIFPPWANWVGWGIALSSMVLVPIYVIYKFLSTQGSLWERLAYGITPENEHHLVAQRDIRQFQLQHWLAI
Histamine H3 receptor (Homo sapiens), sequence (Q9Y5N1 whole entry): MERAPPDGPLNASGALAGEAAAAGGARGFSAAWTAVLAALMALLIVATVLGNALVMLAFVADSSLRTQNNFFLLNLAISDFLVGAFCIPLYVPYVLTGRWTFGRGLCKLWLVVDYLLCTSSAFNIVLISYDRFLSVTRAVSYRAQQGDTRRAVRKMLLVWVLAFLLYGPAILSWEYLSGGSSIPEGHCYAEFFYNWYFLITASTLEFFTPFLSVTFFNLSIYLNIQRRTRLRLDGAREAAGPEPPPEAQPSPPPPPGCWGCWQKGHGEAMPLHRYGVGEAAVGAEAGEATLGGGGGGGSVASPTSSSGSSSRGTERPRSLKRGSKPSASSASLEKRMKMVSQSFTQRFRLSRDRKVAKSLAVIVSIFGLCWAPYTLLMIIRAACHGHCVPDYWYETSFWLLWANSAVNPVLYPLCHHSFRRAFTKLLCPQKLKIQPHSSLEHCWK
Histamine H4 receptor (Homo sapiens), sequence (Q9H3N8 whole entry): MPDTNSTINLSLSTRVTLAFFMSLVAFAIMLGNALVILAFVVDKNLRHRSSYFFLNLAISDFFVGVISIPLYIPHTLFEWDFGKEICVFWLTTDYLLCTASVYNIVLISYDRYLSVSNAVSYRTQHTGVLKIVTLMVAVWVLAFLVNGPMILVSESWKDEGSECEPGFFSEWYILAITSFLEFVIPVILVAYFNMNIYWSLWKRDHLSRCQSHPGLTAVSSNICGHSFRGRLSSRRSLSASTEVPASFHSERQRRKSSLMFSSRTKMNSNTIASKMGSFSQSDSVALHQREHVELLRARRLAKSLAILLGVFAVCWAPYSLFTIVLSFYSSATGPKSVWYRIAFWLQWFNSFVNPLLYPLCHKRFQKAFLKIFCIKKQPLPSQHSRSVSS
5-hydroxytryptamine receptor 1E (Homo sapiens), sequence (P28566 whole entry): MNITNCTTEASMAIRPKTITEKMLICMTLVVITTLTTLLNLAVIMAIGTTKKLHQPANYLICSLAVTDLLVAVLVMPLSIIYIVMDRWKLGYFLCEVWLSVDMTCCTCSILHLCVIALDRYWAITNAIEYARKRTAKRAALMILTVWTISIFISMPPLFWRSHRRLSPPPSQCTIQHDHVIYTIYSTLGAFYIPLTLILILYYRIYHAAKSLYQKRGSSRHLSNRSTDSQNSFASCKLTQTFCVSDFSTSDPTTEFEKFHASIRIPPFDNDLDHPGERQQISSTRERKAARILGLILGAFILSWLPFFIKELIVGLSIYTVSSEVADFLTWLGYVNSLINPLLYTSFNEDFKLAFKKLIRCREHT
Muscarinic acetylcholine receptor M3 (Homo sapiens), sequence (P20309 whole entry, looked up): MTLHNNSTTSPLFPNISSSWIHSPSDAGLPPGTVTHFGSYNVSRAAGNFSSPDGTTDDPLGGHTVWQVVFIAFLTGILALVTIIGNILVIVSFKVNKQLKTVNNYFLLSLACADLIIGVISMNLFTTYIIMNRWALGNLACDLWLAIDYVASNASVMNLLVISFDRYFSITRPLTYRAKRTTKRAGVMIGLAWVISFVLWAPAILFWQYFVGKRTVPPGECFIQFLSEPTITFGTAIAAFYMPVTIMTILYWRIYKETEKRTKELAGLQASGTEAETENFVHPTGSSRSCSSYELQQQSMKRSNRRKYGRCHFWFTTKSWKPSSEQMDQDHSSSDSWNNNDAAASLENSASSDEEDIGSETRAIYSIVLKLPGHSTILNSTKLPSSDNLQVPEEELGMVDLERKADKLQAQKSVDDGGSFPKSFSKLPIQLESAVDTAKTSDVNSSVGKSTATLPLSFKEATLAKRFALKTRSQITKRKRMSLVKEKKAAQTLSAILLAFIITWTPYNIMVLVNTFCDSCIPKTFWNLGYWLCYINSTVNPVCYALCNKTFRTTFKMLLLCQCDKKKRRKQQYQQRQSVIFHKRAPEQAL
D(3) dopamine receptor (Homo sapiens), sequence (P35462 whole entry): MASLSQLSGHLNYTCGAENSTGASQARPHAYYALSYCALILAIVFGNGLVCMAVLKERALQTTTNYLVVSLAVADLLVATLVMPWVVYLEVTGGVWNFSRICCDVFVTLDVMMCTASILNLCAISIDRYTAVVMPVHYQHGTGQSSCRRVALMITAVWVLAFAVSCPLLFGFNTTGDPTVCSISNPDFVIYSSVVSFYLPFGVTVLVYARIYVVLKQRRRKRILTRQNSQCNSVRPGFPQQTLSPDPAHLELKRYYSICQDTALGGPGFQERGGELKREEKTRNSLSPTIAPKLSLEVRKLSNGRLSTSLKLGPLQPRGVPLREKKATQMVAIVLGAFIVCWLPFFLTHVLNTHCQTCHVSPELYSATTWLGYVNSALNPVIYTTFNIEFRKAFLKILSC

Turning to `Cc1cc(NC(=O)Nc2ccc(N(C)C)cc2)c2cc(F)cc(F)c2n1`, the inhibition in assay [1] is 34.5%; in assay [2] it was 9.7%; in assay [3] it was 35.9%; in assay [4], -4.12%; in [5], 7.73%; in [6], 28.6%. Besides, the inhibition is 5.25% in assay [7] and 25.9% in assay [8].

`COc1ccc(Br)cc1S(=O)(=O)NC(=O)/C=C/c1ccccc1Cc1ccc2ccccc2c1`: the inhibition in assay [1] is 64.7%; in assay [9] it was -2.73%; in [10], 12.9%; in assay [2], 18.6%; in assay [3] it was -0.94%; in assay [4] it was 1.84%. Further, the inhibition in assay [5] was 3.03%; in assay [6], 5.89%; in [11], 9.76%; in assay [7] it was -5.64%; in assay [8], 33.8%.

`O=C(O)CC/C=C\C[C@@H]1CO[C@H](c2ccccc2Cl)O[C@@H]1c1ccccc1O`: the inhibition is 40% in [1]; -3.05% in assay [9]; 6.61% in assay [10]; -7.17% in [2]; -6.67% in assay [4]; 6.14% in assay [6]. Also, the inhibition in assay [11] is 16.9%.

Turning to `Cc1cc(C)cc(C(=O)N(C)[C@H](Cc2ccc(-c3ccccc3)cc2)C(=O)N[C@@H](Cc2c[nH]c3ccccc23)C(=O)O)c1`, the inhibition in assay [1] is 3.03%; in assay [10] it was 0.07%; in assay [2] it was 11.1%; in assay [11], 15.9%; in [7], -4.33%; in assay [12], -8.09%. In assay [8], the inhibition was 11.8%.

For the compound `CCCCC#Cc1nc(NC)c2ncn([C@@H]3O[C@H](CO)[C@@H](O)[C@H]3O)c2n1`, the inhibition in [1] was 32.7%; in assay [9], 2.49%; in [10], 13.6%; in assay [2] it was -4.88%; in [4] it was 18.8%; in assay [5] it was 14.1%. Also, the inhibition is 7.95% in [6], 3.96% in assay [11], -7.18% in [7] and -8.18% in [8].

As for `N#Cc1c(N)nc(SCC(N)=O)c(C#N)c1-c1ccc(OCC2CC2)cc1`, the inhibition is -6.34% in assay [1]; 3.97% in assay [9]; -3.51% in assay [6]; 2.75% in assay [11]; 14.3% in assay [7]; -1.71% in [12]. For the same compound, in assay [8], the inhibition was 8.04%.

Take `O=C(Nc1ccc(Cl)cc1)Nc1cccc(-c2cccc(N3CCCC3)n2)c1`: the inhibition was 48.5% in assay [1]; -1.24% in assay [2]; 2.89% in [4]; -5.81% in assay [5]; 28.2% in assay [11]; -1.99% in assay [7]. In addition, the inhibition in [12] was 3.23%; in assay [8], 5.64%.

Take `CCc1cc(C(C)=O)c(O)cc1OCCCCCC(C)(C)c1nn[nH]n1`: the inhibition in assay [1] was 46.8%; in [9] it was 8.17%; in assay [10] it was 8.78%; in assay [2], 12%; in assay [5] it was -9.38%; in [6], 0.93%. The inhibition was -8.57% in [11], 34.3% in assay [7], 14% in assay [12] and 22.6% in assay [8].

In the case of `CCc1cc2c(c(CC)n1)CCC(=O)N2Cc1ccc(-c2ccccc2-c2nnn[nH]2)cc1`, the inhibition in assay [1] is 87.1%; in assay [9], 10.1%; in [2], 5.68%; in assay [4], -6.23%; in assay [5] it was 8.33%; in [11], -4.87%. Besides, the inhibition in [12] is -6.38%; in assay [8], 70%.

As to `CC(C)(C)NC[C@H](O)COc1nsnc1N1CCOCC1`, the inhibition in assay [1] was -0.36%; in assay [2], 1.66%; in assay [4], 7.32%; in assay [6], 10.1%; in assay [11], 39.4%; in [7], 3.02%. In addition, the inhibition in [12] is 11.8%; in [8], 15.6%.

Regarding `Cc1nc(C(=O)N2CCC[C@H]2Cc2nnc(-c3ccccc3)o2)c(-c2ccccc2F)s1`, the inhibition is 45% in [1]; 17.4% in [9]; -8.01% in [10]; -1.4% in assay [2]; -8.85% in assay [4]; -1.8% in assay [5]. Besides, the inhibition in [6] is 22.7%; in [11], 3.86%; in [7], -2.37%; in assay [8], -5.22%.

On to `CC(C)C[C@H](NC(=O)N1CCCCCC1)C(=O)N[C@H](Cc1cn(C)c2ccccc12)C(=O)N[C@H](Cc1ccccn1)C(=O)O`, for which the inhibition in [1] was 22.6%; in assay [2] it was 0.48%; in assay [5], -9.08%; in assay [12] it was -6.57%.

Turning to `Cc1c(OCc2cccc(-c3ccc(C(=O)O)cc3)c2)cc2c(c1C)C(=O)C(C1CCCC1)C2` (stereo unspecified), the inhibition is 33.5% in assay [1]; -3.02% in [9]; 34.5% in [10]; 6.04% in assay [4]; -4.07% in assay [5]; 31.1% in [6]. Also, the inhibition in assay [11] is -4.54%; in assay [7], 14.3%; in [8] it was 44%.

As for `O=C(Cc1ccccc1)Nc1nc2ccc(Cl)cc2c2nc(-c3ccco3)nn12`, the inhibition in assay [1] is 30.2%; in assay [9], -2.97%; in assay [2] it was 9.95%; in [3], -6.09%; in [4], 7.51%; in assay [11], -8.72%. The inhibition was 6.75% in assay [7], 3.62% in [12] and 33.2% in assay [8].
